Data on 20 molecules can be found in patent US9034866B2 (Genentech, Inc., priority 2012, dated 2015).

Several values for one entry are separate records, joined by “and”; a condition that tells them apart may be missing. Equal values may be shown once. Read-outs that look alike come from different tables or passages of the source.

This test addresses nuclear factor-kappa B (NF-kB)-inducing kinase (NIK) (Homo sapiens (Human), UniProt Q99558). Briefly: NIK Enzyme Inhibition Assay (Transcreener ADP fluorescence polarization). Type of test: biochemical. The settings on record: read-out: NIK ADP-FP (Ki uM). On the procedure: NIK Enzyme Inhibition Assay: The ability of the nuclear factor-kappa B (NF-kB)-inducing kinase (NIK) to catalyze the hydrolysis of adenosine-5′-triphosphate (ATP) was monitored using the Transcreener ADP (adenosine-5′-diphosphate) assay (BellBrook Labs). Purified NIK (0.2-1 nM) derived from a baculovirus-infected insect cell expression system was incubated with test compounds for 1-3.5 hours in 50 mM 2-[4-(2-hydroxyethyl)piperazin-1-yl]ethanesulfonic acid buffer (pH 7.2) containing 10 mM MgCl2, 2 mM dithiothreitol, 10 uM ATP, 0.01% Triton X-100, 0.1% gamma-globulins from bovine blood, 1% dimethylsulfoxide (DMSO), 12 ug/mL ADP antibody and 4 nM ADP-AlexaFluor® 633 tracer. Reactions were quenched by the addition of 20 mM 2,2′,2″,2′″-(ethane-1,2-diyldinitrilo)tetraacetic acid and 0.01% Brij 35. The tracer bound to the antibody was displaced by the ADP generated during the NIK reaction, which causes a decrease in fluorescence polarization that was measured by laser excitation at 633 nm with a Fluorescence Correlation Spectroscopy Plus reader (Evotec AG).

[1] abbreviates: purified NIK 0.2-1 nM, 10 uM ATP, Morrison's quadratic equation.

Chain of nuclear factor-kappa B (NF-kB)-inducing kinase (NIK) (Q99558 whole entry): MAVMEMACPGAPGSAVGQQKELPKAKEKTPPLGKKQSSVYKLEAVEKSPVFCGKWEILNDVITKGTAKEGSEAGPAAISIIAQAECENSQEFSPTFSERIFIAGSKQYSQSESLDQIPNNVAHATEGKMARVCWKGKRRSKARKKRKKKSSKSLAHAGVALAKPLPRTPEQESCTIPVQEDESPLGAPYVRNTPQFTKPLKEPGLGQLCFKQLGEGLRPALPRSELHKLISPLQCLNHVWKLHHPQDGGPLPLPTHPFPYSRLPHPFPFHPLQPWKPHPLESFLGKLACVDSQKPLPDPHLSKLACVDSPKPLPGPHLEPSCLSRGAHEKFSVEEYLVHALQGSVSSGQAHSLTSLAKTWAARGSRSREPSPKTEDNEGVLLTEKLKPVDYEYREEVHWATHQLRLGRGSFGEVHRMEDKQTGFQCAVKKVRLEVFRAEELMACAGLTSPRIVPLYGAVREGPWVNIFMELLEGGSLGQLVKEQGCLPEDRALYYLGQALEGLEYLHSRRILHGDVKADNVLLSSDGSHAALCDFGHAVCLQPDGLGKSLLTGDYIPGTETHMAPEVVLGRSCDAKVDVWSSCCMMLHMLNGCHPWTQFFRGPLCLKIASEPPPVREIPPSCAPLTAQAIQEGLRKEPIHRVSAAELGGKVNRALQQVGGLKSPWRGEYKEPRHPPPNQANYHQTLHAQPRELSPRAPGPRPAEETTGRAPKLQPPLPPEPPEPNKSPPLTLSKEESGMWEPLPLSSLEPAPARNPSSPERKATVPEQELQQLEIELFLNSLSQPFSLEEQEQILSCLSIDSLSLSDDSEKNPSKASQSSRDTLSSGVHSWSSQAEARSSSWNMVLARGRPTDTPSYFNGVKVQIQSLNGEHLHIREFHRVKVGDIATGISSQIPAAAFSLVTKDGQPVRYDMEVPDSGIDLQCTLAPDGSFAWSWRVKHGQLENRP

In general, Ki refers to the dissociation constant of the complex between target and ligand, obtained from inhibition or displacement. `COCC(C)(O)C#Cc1ccc2c(c1)-c1nc(C(N)=O)cn1C1CC2C1` (centres unmarked): the Ki under setting [1] was found to be 0.0097 µM.

Turning to `CC(O)(C#Cc1cc2c(cc1F)OCCn1cc(C(N)=O)nc1-2)c1ccc(Cl)cn1` (centres unmarked) [Example 102, 9-[3-(5-chloro-pyridin-2-yl)-3-hydroxy-but-1-ynyl]-8-fluoro-4,5-dihydro-6-oxa-1,3a-diaza-benzo[e]azulene-2-carboxy-lic acid amide], the inhibitory constant (Ki) under setting [1] is greater than 5 µM.

Turning to `CC(C)(O)C#Cc1cc2c(cc1F)OCCn1cc(C(N)=O)nc1-2` [Example 5, 8-fluoro-9-(3-hydroxy-3-methyl-but-1-ynyl)-4,5-dihydro-6-oxa-1,3a-diaza-ben-zo[e]azulene-2-carboxylic acid amide], the Ki under setting [1] worked out at 0.034 µM.

As to `Cc1cc([C@](C)(O)C#Cc2ccc3c(c2)-c2nc(C(N)=O)c(C(=O)NC4CCOCC4)n2CCO3)no1` [Example 712, (R)-10-(3-hydroxy-3-(5-methylisoxazol-3-yl)but-1-yn-1-yl)-N3-(tetrahydro-2H-pyran-4-yl)-5,6-dihydrobenzo[f]imidazo[1,2-d][1,4]oxazepine-2,3-dicarboxamide], under setting [1], the Ki was determined as 1 µM.

Regarding `CN(C)C(=O)C(C)(O)C#Cc1cc2c(cc1F)OCCn1cc(C(N)=O)nc1-2` (racemic) [Example 51], under setting [1], the Ki came out at 0.721 µM.

Consider `CN1CCN(Cc2c(C(N)=O)nc3n2CCOc2ccc(C#CC(C)(C)O)cc2-3)CC1`, for which the Ki under setting [1] was 0.95 µM.

In the case of `CC(C)(O)C#Cc1cc2c(cc1F)OCCn1c-2nc(C(N)=O)c1-c1cc[nH]n1` [Example 35, 8-fluoro-9-(3-hydroxy-3-methyl-but-1-ynyl)-3-(1H-pyrazol-3-yl)-4,5-dihydro-6-oxa-1,3a-diaza-benzo[e]azulene-2-car-boxylic acid amide], under setting [1], the Ki amounted to 0.003 µM.

As to `NC(=O)c1cn2c(n1)-c1cc(C#CC3(O)CC(CO)C3)c(F)cc1OCC2` (centres unmarked) [Example 76], the inhibition constant (Ki) under setting [1] was found to be 2.3 µM.

`Cc1cc([C@](C)(O)C#Cc2ccc3c(c2)-n2nc(C(N)=O)cc2C(F)(F)CO3)no1` [Example 674, (R)-4,4-difluoro-9-(3-hydroxy-3-(5-methylisoxazol-3-yl)but-1-yn-1-yl)-4,5-dihydrobenzo[b]pyrazolo[1,5-d][1,4]oxazepine-2-carboxamide]: the Ki is 0.0011 µM.

On to `Cc1nc(-c2c(C(N)=O)nc3n2CCOc2cc(F)c(C#CC(C)(C)O)cc2-3)n(CC(F)(F)F)n1`, for which the Ki under setting [1] is 0.502 µM.

`CN(C)C1COc2cc(F)c(C#CC(C)(C)O)cc2-c2nc(C(N)=O)sc21` (racemic): the inhibition constant Ki under setting [1] was greater than 5 µM.

In the case of `COCCNCc1c(C(N)=O)nc2n1C1CC(C1)c1cc(F)c(C#CC(C)(C)O)cc1-2` (racemic), under setting [1], the Ki was found to be 0.056 µM.

For the molecule `CC(O)(C#Cc1cc2c(cc1F)OCCn1cc(C(N)=O)nc1-2)c1cc(CC#N)on1` (racemic), the Ki under setting [1] amounted to 0.003 µM.

`Cc1cc([C@](C)(O)C#Cc2ccc3c(c2)-c2nc(C(N)=O)cn2CC(CN2CCOCC2)O3)no1` (stereo partly drawn) [Example 597, 10-((R)-3-hydroxy-3-(5-methylisoxazol-3-yl)but-1-yn-1-yl)-6-(morpholinometh-yl)-5,6-dihydrobenzo[f]imidazo[1,2-d][1,4]oxazepine-2-carboxamide]: under setting [1], the Ki is 0.28 µM.

As for `CC(C)(O)C#Cc1ccc2c(c1)-c1nc(C(N)=O)c(CN3CC[C@@H](C#N)C3)n1CCO2`, the Ki under setting [1] is 1.8 µM and 1.1 µM.

Turning to `COCC(C)(O)C#Cc1cc2c(cc1F)C1CC(C1)n1c-2nc(C(N)=O)c1C1CC1` (racemic), the Ki under setting [1] stood at 0.014 µM.

Take `CN1CC[C@](O)(C#Cc2ccc3c(c2)-c2nc(C(N)=O)cn2C2CC3C2)C1=O`: under setting [1], the Ki was greater than 1.2 µM.

For the molecule `CC(O)(C#Cc1ccc2c(c1)-n1nc(C(N)=O)cc1CCO2)C1CCCO1` (centres unmarked) [Example 696], under setting [1], the Ki is 1 µM.

Take `NC(=O)c1cn2c(n1)-c1cc(C#CC3(O)CCC3)c(F)cc1OCC2` [Example 17, 8-fluoro-9-(1-hydroxy-cyclobutylethynyl)-4,5-dihydro-6-oxa-1,3a-diaza-benzo[e]azulene-2-carboxylic acid amide]: the Ki under setting [1] came to 0.01 µM.

For `CC(O)(C#Cc1ccc2c(c1)-c1nc(C(N)=O)cn1C1CC2C1)c1ccccn1` (centres unmarked), the Ki under setting [1] is 0.0071 µM.
